From patent publication US20200352889A1, “CYSTATHIONINE COMPOSITIONS AND METHODS OF TREATMENT FOR HEALTH CONDITIONS” (THE REGENTS OF THE UNIVERSITY OF COLORADO, A BODY CORPORATE, priority 2011, published 2020)

Legend:
Grp78, Grp94, GADD153 = assay: Northern and Western blotting of UPR induction in 293AD cells; assay type: cell-based, human
Protocol: To further assess the effect of cystathionine upon induction of the UPR and GADD153 by ER stress Northern and Western blotting experiments were performed.
Immunoblot analysis of total cell lysates was performed as described previously (4,14). Briefly, following incubation with the appropriate primary and horseradish peroxidase-conjugated secondary antibodies (Affinity Biologicals, Ancaster, ON, Canada) membranes were developed using the Renaissance® Western Blot Chemiluminescence Reagent Kit, (Perkin Elmer, Woodbridge, ON, Canada). Proteins were transferred on a nitrocellulose membrane, and probed with anti-KDEL monoclonal antibody, which recognizes Hsp70, GRP78 and GRP94 that was purchased from Stressgen Biotechnologies (SPA-827) or anti GADD153 (Santa Cruz Biotech #SC-7351). Anti-β-Actin monoclonal antibody (Sigma) was used as a loading control.
Total RNA was isolated from 293AD cells using the RNeasy® total RNA kit (Qiagen, Santa Clarita, Calif.) and resuspended in diethylpyrocarbonate (DEPC)-treated water. Quantification and purity of the RNA was assessed by A260/A280 absorption, and RNA samples with ratios greater than 1.6 were stored at […] for further analysis. Total RNA (10 μg/lane) was fractionated on 2.2 mol/L formaldehyde/1.2% agarose gels and transferred overnight onto Zeta-Probe® GT nylon membranes (Bio-Rad, Toronto, Canada) in 10×SSC. The RNA was cross-linked to the membrane using a UV crosslinker (PDI Bioscience, Toronto, Canada) before hybridization. Specific probes were generated by labeling cDNA fragments with [−32P]dCTP (NEN) using a random primed DNA labeling kit (Boehringer Mannheim, Laval, Canada). The cDNA probe for GADD153 (no. AA627477) was obtained from Genome Systems (St Louis, Mo.). The cDNA probe used for GRP78 is a full length cDNA clone that has been described previously (4). After overnight hybridization at 43° C., the membranes were washed as described by the manufacturer, exposed to x-ray film, and subjected to autoradiography.

[1] = tested on: KDEL containing chaperones and GADD153; assay: Immunohistochemical analysis of unfolded protein response in liver and kidney; assay type: in vivo, mouse
Protocol: While it is not necessary to understand the mechanism of action, it is believed cystathionine may protect against ER stress induced cell injury by increasing the induction of molecular chaperones like Grp78 or by inhibiting the induction of GADD153. In order to investigate the mechanism by which cystathionine is protecting against ER stress induced tissue injury, an immunohistochemical analysis of liver and kidney tissues samples from the experimental groups described above was performed. […] Strong induction of KDEL containing proteins and GADD153 by tunicamycin treatment in both liver and kidneys of the tunicamycin groups was observed (FIG. 8, Panel B).
Prolonged perturbation of the ER is a powerful inducer of the C/EBP family member GADD153 (also known as CHOP) that plays a key role in the induction of programmed cell death by ER stress (10). Previous work has shown that GRP78 over-expression in Chinese hamster ovary cells attenuates both the ER stress-signal and the cell death that is observed in response to calcium ionophores (22) and blocking the expression of GRP78 by means of antisense constructs increase the lethality of agents that promote ER stress (23). Within this context, it is conceivable that cystathionine could protect against ER stress induced cell injury by increasing the induction of molecular chaperones like Grp78 or by inhibiting the induction of GADD153. […]

HepG2 cells = assay: Tunicamycin-induced cell death, LDH release, HepG2 cells; assay type: cell-based, human; conditions: data not shown
Protocol: Cells were seeded in triplicate at ˜75% confluence and pre-treated with either PPG) (5 mM), Cystathionine (1 mM) or with just complete media (DMEM, 10% FBS) as a control. After 24 hr pre-treatment, cells looked normal, with minimal floating cells. Fresh media with 1% FBS was then added to each well, the cells were further treated with Tm (either 5 or 10 ug)/ml. After 18 hr. treatment with Tunicamycin, cells were photographed under phase-contrast with a Zeiss Axiovert 25 microscope for evidence of dead floating cells. Cells from the group treated solely with tunicamycin became strikingly hyper-refringent, detached from the substratum and floated in the media. […] To further evaluate a role for cystathionine in resisting the induction of cell death by tunicamycin, cell lysis was quantified by assaying lactate dehydrogenase (LDH) release. The enzyme activity was determined spectrophotometrically and the amount of enzyme leak was expressed as a percentage of the LDH activity observed in untreated control cells. […]
Cells were seeded in triplicate at ˜75% confluence and pre-treated with either PPG) (5 mM), Cystathionine (1 mM) or with just complete media (DMEM, 10% FBS) as a control. […] To further evaluate a role for cystathionine in resisting the induction of cell death by tunicamycin, cell lysis was quantified by assaying lactate dehydrogenase (LDH) release. […]

Compound: C#CCC(N)C(=O)O (racemic) [PPG, D,L-2-amino-4-pentynoic acid]
- expression of Grp78, Grp94 and GADD15 in control cells (Grp78, Grp94, GADD153; PPG 5 mM or cystathionine 5 mM, no tunicamycin): Neither PPG nor exogenously added cystathionine induced expression
- scale of induction of Grp78, Grp94 and GADD153 in the presence of tunicamycin (Grp78, Grp94, GADD153; tunicamycin 5 and 10 μg/ml): Nor did either of these treatments significantly alter the scale of induction
- expression of KDEL signature proteins ([1]; PPG treatment alone): did not induce expression
- level of induction of KDEL containing chaperones and GADD153 by tunicamycin ([1]; tunicamycin + PPG, liver and kidney): did not appear to affect the level of induction
- protection against tunicamycin-induced cell death compared with 293AD cells (HepG2 cells): Essentially identical results
